{"source": "patent US6228626A", "about": "“Sarcosine oxidase and process for producing the same” (priority 1998, dated 2001)", "target": "mutant sarcosine oxidase from E. coli JM109 (pSO12 EH), FERM BP-6597; mutant of Bacillus sp. NS-129 sarcosine oxidase (wild type SEQ ID NO: 1) (Bacillus sp. NS-129, UniProt P23342)", "assay": "Km determination by sarcosine oxidase enzyme assay (formaldehyde/acetyl-acetone colour), Lineweaver-Burk plot", "type": "biochemical", "details": "read-out: Km value (for sarcosine), phosphate buffer pH7.7, 37° C., 10 minutes", "description": "0.25M phosphate buffer (0.1 ml, pH7.7), 0.2 M sarcosine solution (0.3 ml) and the enzyme solution with an appropriate concentration (0.1 ml) were mixed and reacted at 37° C. for 10 minutes. Then, 1.0 N acetic acid solution (0.5 ml) was added to the mixture to stop the reaction. To the mixture was added 3 ml of acetyl-acetone color-developing solution (acetyl-acetone, 0.2%(v/v) and diammonium hydrogenphosphate, 10%(w/v) ) (pH6.5) to develop the color at 37° C. for 40 minutes. The absorbance was determined at 410 nm by spectrophotometer. Then, the yield of the enzyme was estimated from the calibration curve of formaldehyde prepared beforehand. The amount of the enzyme which produces 1 μmole of formaldehyde per minute at 37° C. was defined as 1 unit.\nThe Km value of the enzyme was determined using the assay as described above.", "data": [{"smiles": "CNCC(=O)O", "note": "[sarcosine]", "values": [{"measurement": "Km", "value": "~3.5", "unit": "mM"}]}]}
